Test results: patent US4705788A, “Novel antibacterial 7-amino-1(substituted cyclopropyl)-1,4-dihydro-4-oxo-3-quinolinecarboxylic acids” (Bayer Aktiengesellschaft, priority 1985, dated 1987)
Values after ≈ are worked out from the molar mass of the structure shown.

Tests used:
Test in all cases: MIC, agar dilution test (Isosensitest medium), Denley multipoint inoculator
Format in all cases: cell-based
E. coli T 7 = conditions: Escherichia coli, T7, strain E. coli T 7
Text: (§1) Agar dilution test (Isosensitest medium); Denley multipoint inoculator

Klebsiella 8085 = conditions: strain Klebsiella 8085
Text: as §1

E. coli Neumann = conditions: Escherichia coli, strain E. coli Neumann
Text: as §1

E. coli A 261 = conditions: Escherichia coli, A261, strain E. coli A 261
Text: as §1

| SMILES | MIC (E. coli T 7) | MIC (Klebsiella 8085) | MIC (E. coli Neumann) | MIC (E. coli A 261) |
| --- | --- | --- | --- | --- |
| CC1(n2cc(C(=O)O)c(=O)c3cc(F)c(N4CCNCC4)cc32)CC1 [Example 1, 6-fluoro-1,4-dihydro-1-(1-methylcyclopropyl)-4-oxo-7-(1-piperazinyl)-3-quinolinecarboxylic acid] | ≤ 0.015 µg/mL | 0.03 µg/mL (≈ 0.0869 µM) | 0.06 µg/mL (≈ 0.174 µM) | ≤ 0.015 µg/mL |
| CC1CN(c2cc3c(cc2F)c(=O)c(C(=O)O)cn3C2(C)CC2)CCN1 (stereo not drawn) [Example 3] | 0.03 µg/mL (≈ 0.0835 µM) | 0.06 µg/mL (≈ 0.167 µM) | 0.06 µg/mL (≈ 0.167 µM) | 0.03 µg/mL (≈ 0.0835 µM) |
| CCn1cc(C(=O)O)c(=O)c2cc(F)c(N3CCNCC3)cc21 [Norfloxacin, reference compound] | 0.06 µg/mL (≈ 0.188 µM) | 0.125 µg/mL (≈ 0.391 µM) | 0.06 µg/mL (≈ 0.188 µM) | 0.03 µg/mL (≈ 0.0939 µM) |
